From paper PMC7226045, “Ensartinib (X-396) Effectively Modulates Pharmacokinetic Resistance Mediated by ABCB1 and ABCG2 Drug Efflux Transporters and CYP3A4 Biotransformation Enzyme” (Cancers, 2020) come the findings set out here.

Assay [1] deals with ABCB1, ABCG2, ABCC1 mRNA. The experiment in a line: Gene induction study (qRT-PCR), ABC transporter mRNA. Type of assay: cell-based, human. As to conditions: 0.5 µM ensartinib; 24 and 48 h; Caco-2, LS174T, A549, NCI-H1299 cells. Here is the method:
Gene induction studies were performed with minor modifications as described recently. Although all gene induction studies involved the use of quantitative real-time reverse transcription PCR (qRT-PCR) to measure mRNA levels, the methods used for specific cell lines varied considerably. Therefore, they are described separately.
For transporter-oriented studies, A549 (24 × 10^4 cells/well), NCI-H1299 (18 × 10^4 cells/well), Caco-2 (50 × 10^4 cells/well), or LS174T (100 × 10^4 cells/well) cells were plated in 12-well plates 24 h before the experiment. Subsequently, the medium was replaced with fresh medium containing 0.5 µM ensartinib, 25 µM rifampicin, or 0.1% DMSO (vehicle control). […] The RNA yield was measured using a NanoDrop ND-1000 spectrophotometer (American Laboratory Trading, East Lyme, CT, USA) while RNA quality and integrity were verified by agarose gel electrophoresis. […] The expression of ABCB1, ABCG2 and ABCC1 was assessed using gb Easy PCR Master Mix and TaqMan qRT-PCR systems in 384-well plates according to the manufacturer´s instructions, amplifying 20 ng of cDNA per reaction. qRT-PCR was performed using QuantStudio 6 (Life Technologies, Carlsbad, CA, USA) with predefined thermal cycling conditions (95 °C for 3 min then 40 repeats of a cycle of 95 °C for 10 s and 60 °C for 20 s). […]
(In general: Quantitative PCR measures a nucleic acid by following its amplification.)

Assay [2] deals with T1, ABCG2 (Homo sapiens, UniProt Q9UNQ0).
T1 construct: expressed in transfected cells; host or cells: MDCKII-ABCG2 (from Dr. Alfred Schinkel, The Netherlands Cancer Institute)
T1 sequence (Q9UNQ0 1-655): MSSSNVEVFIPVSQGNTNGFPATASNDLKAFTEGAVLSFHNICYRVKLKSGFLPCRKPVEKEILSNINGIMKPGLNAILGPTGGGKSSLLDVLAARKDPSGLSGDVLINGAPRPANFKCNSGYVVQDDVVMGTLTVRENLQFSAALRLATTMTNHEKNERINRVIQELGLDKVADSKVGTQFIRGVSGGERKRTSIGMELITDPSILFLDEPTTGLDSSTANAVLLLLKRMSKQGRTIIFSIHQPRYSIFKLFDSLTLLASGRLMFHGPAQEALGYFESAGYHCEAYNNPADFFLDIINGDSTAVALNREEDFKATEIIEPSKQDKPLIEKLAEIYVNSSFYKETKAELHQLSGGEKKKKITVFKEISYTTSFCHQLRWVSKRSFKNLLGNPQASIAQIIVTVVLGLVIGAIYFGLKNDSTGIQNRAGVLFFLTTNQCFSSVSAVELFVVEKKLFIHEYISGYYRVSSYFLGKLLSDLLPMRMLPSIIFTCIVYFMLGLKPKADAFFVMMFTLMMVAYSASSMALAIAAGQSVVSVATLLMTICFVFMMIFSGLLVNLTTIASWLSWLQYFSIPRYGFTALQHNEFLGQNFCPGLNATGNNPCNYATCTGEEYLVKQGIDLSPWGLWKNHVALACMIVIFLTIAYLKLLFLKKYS
Nature of the assay: hoechst 33342 accumulation assay in MDCKII-ABCG2 cells. The class given is cell-based. Conditions: read-out: IC50, inhibition of ABCG2 (hoechst 33342 accumulation). Here is the method:
Cellular accumulation assay with hoechst 33342 and calcein AM was performed as described previously. Briefly, MDCKII-par, MDCKII-ABCB1, MDCKII-ABCG2, and MDCKII-ABCC1 cells were seeded at densities of 5.0 × 10^4, 5.0 × 10^4, 5.5 × 10^4, and 6.0 × 10^4 cells/well, respectively, on a transparent 96-well plate and grown to full confluence for 24 h under standard conditions. The cells were then washed twice with 1 × PBS, after which was added either a dilution of ensartinib in Opti-MEM (1, 5, 10, 25, or 50 µM) or a specific inhibitor to act as a positive control (1 µM LY335979, 1 µM Ko143, or 25 µM MK-571 for ABCB1, ABCG2, or ABCC1, respectively). Cells were pre-incubated for 10 min, then 8 µM hoechst 33342 (a model substrate for ABCB1 and ABCG2) or 2 µM calcein AM (ABCC1 substrate) diluted in Opti-MEM was quickly added to all wells other than those containing blank samples. The intracellular levels of the substrates were then determined at 1 min intervals for 30 min using a microplate reader (Infinite M200 Pro, Tecan, Männedorf, Switzerland). Fluorescence was monitored in bottom mode using excitation/emission wavelengths of 350/465 and 485/535 nm for hoechst 33342 and calcein AM, respectively.

For assay [3], the target named is T2, ABCB1 (Homo sapiens, UniProt P08183).
T2 construct: expressed in transfected cells; host or cells: MDCKII-ABCB1 (from Dr. Alfred Schinkel, The Netherlands Cancer Institute)
Nature of the assay: daunorubicin accumulation assay (flow cytometry) in MDCKII-ABCB1 cells. As to conditions: 2 µM daunorubicin, 1 h, read-out: IC50, inhibition of ABCB1 (daunorubicin accumulation). The class given is cell-based. The procedure:
The flow-cytometric inhibitory assay with daunorubicin and mitoxantrone was performed with minor modifications as described previously. MDCKII-par, MDCKII-ABCB1, MDCKII-ABCG2, and MDCKII-ABCC1 cell lines were seeded at densities of 22.0 × 10^4, 15.0 × 10^4, 25.0 × 10^4, and 22.0 × 10^4 cells/well, respectively, on a 12-well plate and then incubated for 24 h to reach approximately 70–80% confluence. Further steps including cell washing, the preparation of drug/model inhibitor dilutions, and their addition to cells were performed as described above. After the 10 min pre-incubation period, 2 µM daunorubicin (a substrate of ABCB1/ABCC1) or 1 µM mitoxantrone (ABCG2 substrate) were promptly added to all wells other than those containing background samples, then the plate was incubated for 1 h under standard conditions. The plates were subsequently placed on ice, the cells were washed twice with ice-cold 1× PBS, and 10× trypsin without phenol red was added. After complete trypsinization, the cells were vigorously resuspended in ice-cold 1× PBS containing 2% FBS. Samples were then transferred into test-tubes and kept on ice until their fluorescence could be measured using a flow cytometer (BD FACSCanto II, Allschwil, Switzerland). The excitation/emission wavelengths for daunorubicin and mitoxantrone were 490/565 and 640/670 nm, respectively.
(In general: A flow cytometer gives signals particle by particle.)

T2 sequence (P08183 whole entry): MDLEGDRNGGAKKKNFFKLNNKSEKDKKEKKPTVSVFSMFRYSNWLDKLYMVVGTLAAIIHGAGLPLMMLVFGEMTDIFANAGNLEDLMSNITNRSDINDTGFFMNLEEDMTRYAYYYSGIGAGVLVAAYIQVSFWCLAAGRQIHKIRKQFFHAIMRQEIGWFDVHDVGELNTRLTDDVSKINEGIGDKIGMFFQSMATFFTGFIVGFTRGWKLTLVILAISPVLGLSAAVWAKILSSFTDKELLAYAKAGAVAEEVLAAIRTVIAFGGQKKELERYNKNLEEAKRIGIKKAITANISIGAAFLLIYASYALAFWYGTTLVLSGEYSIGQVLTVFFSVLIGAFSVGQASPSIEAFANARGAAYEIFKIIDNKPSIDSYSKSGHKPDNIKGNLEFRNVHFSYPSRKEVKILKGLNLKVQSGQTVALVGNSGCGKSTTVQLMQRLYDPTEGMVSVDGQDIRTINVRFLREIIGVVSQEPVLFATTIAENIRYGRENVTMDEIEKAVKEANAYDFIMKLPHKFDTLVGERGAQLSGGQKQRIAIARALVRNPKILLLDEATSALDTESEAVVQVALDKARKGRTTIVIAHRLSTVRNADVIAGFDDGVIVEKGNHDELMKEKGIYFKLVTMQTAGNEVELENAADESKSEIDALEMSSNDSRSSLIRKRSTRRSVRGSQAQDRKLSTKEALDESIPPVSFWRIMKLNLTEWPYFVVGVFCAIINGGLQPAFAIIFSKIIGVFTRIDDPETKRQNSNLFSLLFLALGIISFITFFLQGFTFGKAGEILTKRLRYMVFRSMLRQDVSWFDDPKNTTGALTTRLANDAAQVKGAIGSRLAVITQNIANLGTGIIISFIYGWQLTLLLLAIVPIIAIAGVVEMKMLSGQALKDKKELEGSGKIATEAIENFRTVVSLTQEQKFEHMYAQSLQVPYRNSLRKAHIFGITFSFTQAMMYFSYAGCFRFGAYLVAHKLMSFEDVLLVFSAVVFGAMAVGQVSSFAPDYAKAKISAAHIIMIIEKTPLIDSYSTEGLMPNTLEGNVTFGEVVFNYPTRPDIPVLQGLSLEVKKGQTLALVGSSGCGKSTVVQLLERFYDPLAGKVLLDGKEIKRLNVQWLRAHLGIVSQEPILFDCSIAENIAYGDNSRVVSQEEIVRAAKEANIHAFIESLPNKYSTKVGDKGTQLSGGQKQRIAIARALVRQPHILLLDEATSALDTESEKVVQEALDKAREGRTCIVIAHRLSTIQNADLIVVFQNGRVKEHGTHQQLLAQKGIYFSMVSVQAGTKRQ

Usually IC50 stands for the concentration that gives 50% inhibition. Take `C[C@@H]1CN(C(=O)c2ccc(NC(=O)c3cc(O[C@H](C)c4c(Cl)ccc(F)c4Cl)c(N)nn3)cc2)C[C@H](C)N1` [ensartinib, Ensartinib]: the “change in mRNA levels of ABCB1, ABCG2, ABCC1” value in assay [1] is listed as “did not increase or reduce the mRNA levels of ABCB1, ABCG2, or ABCC1 by more than 100% or 50%”. The IC50 was found to be 9.13 µM in assay [2] and 4.75 µM in assay [3].
